The record followed here is PMC7985297 (Communications Biology, 2021).

For one experiment, the system named is LN95 cells. The experiment in a line: Colony formation of LN95 cells. The format is cell-based, human. The settings on record: LN95, ATRA 5 or 10 µM, EPI-002 25 µM, treated 24 hours then re-plated. On the procedure: page 5: Supplementary Figure 5 a b […] (a) Representative images of colonies from LN95 cells after […] EPI-002. After treating with compounds for 24 hours, the media was removed, and 500 -1,000 cells were re-plated in 6-well plates. Colonies were fixed with 4% paraformaldehyde, stained with a 0.1% crystal violet solution, and then imaged. […]

A further experiment deals with serum PSA. Nature of the experiment: Quantification of serum PSA (ELISA) in xenograft-bearing mice. The following applies: ATRA compared to placebo; on average; did not reach statistical significance. It is filed as in vivo. On the procedure: Serum levels for total PSA were measured by a PSA ELISA kit (Anogen, Mississauga, ON) with a lower limit sensitivity of ~1 ng/mL. Whole blood was sampled from the tail vein on days indicated or by cardiac puncture immediately after euthanasia. The serum fraction was separated by centrifugation at 12,000 rpm for 3 min at room temperature and then stored at −20 °C until further analysis. Serum samples were diluted tenfold for the assay and were compared to calibration standards, according to the manufacturer’s protocol. The concentration of total PSA was determined by a VersaMax ELISA microplate reader by measuring absorbance at 450 nm with a reference wavelength of 650 nm.
For orientation: An ELISA detects its analyte on a solid surface through an enzyme-linked reagent.

The test system of a further experiment is DU145 cells. Nature of the experiment: BrdU incorporation assay, DU145. The following applies: ATRA 10 µM. The format is cell-based, human. The method, then:
Cells were treated with the inhibitors and stimulated with 1 nM of R1881 (+) or vehicle (−) for 24 to 72 h. Each data point represents the average from an independent experiment where the error bars show the mean ± s.e.m.
BrdU incorporation was determined with the colorimetric BrdU ELISA kit (Roche Diagnostics), according to the manufacturer’s protocol. In brief, cells were seeded in 96-well plates (LNCaP, 5000/well; LN95, 8000/well; PC-3 and DU145, 4000/wells) in media with reduced serum (0.5–1%). On the following day, cells were pre-treated with test compounds for 1 h and then incubated with 0.1 nM of R1881. After the indicated incubation times, cells were labeled with 10 μM of BrdU for 2 h and then fixed for the assay.

In another experiment the test system is LNCaP cells. The experiment in a line: Senescence-associated β-galactosidase staining, LNCaP. It is filed as cell-based, human. The following applies: ATRA 10 µM, 3 days. The source says: Supplementary Figure 6. […] ( a)
Staining of senescence-associated β-galactosidase (SA β-gal) activity in cell lines treated with vehicle
Original magnification ×100.
percentage of β-gal positive cells as means ± s.e.m. from 3 independent experiments, where at least
1,000 cells were scored for each group. (c) Representative Western blot showing the indicated cell […]

The next experiment concerns LN95-D3 xenografts. Nature of the experiment: Growth of LN95-D3 CRPC xenografts in castrated male NSG mice. The format is in vivo. The settings on record: for Tumor volume, individual animals (Fig. 7b): ATRA 5mg, in mm³ (unit assumed).
Experiment [1] concerns the target T1, full-length AR (Homo sapiens, UniProt P10275, T878A).
T1 construct: Transcriptional activity of full-length AR was assessed in LNCaP cells; endogenous in cells; host or cells: LNCaP
T1 sequence (P10275 1-920 T878A): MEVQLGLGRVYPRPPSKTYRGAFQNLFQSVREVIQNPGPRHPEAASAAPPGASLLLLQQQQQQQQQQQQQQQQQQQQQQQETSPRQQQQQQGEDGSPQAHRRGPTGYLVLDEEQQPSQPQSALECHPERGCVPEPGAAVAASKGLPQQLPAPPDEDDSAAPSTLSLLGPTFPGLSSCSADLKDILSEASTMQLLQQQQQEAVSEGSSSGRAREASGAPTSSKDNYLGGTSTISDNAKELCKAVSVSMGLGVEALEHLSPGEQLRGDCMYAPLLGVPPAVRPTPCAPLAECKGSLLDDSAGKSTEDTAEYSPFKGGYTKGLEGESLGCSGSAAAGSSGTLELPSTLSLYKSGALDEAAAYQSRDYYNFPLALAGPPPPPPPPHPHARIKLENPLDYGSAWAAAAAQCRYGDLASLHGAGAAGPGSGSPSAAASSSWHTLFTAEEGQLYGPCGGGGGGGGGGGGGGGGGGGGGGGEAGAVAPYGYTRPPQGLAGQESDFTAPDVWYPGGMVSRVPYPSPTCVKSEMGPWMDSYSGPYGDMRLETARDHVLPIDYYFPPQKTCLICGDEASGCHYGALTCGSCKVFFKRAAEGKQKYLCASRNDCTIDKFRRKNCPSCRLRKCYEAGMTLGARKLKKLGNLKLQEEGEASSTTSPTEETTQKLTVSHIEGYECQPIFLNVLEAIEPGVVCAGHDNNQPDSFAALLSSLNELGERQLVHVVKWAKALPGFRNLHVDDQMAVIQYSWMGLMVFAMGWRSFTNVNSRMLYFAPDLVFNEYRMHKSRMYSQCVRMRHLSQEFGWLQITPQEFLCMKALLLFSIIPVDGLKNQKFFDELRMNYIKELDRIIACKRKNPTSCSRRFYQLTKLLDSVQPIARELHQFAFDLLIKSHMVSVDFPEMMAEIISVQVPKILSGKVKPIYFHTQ
Nature of the experiment: Probasin (PB)-luciferase AR-driven reporter assay in LNCaP cells. The format is cell-based. The following applies: 24 h, R1881 1 nM. (In general: Reporter assays use an easily measured gene product as a stand-in for the process of interest.)

Experiment [2] has as its target T1, full-length AR. Nature of the experiment: PSA(6.1 kb)-luciferase AR-driven reporter assay in LNCaP cells. The following applies: LNCaP, R1881 1 nM, 24 h; read-out: IC50, androgen-induced PSA(6.1 kb)-luciferase activity. The format is cell-based.
In the next experiment the target is T2, YFP-AR fusion protein (Homo sapiens, UniProt P10275).
T2 construct: expressed in transfected cells; host or cells: LNCaP
T2 sequence (P10275 whole entry, the tested form may be a part): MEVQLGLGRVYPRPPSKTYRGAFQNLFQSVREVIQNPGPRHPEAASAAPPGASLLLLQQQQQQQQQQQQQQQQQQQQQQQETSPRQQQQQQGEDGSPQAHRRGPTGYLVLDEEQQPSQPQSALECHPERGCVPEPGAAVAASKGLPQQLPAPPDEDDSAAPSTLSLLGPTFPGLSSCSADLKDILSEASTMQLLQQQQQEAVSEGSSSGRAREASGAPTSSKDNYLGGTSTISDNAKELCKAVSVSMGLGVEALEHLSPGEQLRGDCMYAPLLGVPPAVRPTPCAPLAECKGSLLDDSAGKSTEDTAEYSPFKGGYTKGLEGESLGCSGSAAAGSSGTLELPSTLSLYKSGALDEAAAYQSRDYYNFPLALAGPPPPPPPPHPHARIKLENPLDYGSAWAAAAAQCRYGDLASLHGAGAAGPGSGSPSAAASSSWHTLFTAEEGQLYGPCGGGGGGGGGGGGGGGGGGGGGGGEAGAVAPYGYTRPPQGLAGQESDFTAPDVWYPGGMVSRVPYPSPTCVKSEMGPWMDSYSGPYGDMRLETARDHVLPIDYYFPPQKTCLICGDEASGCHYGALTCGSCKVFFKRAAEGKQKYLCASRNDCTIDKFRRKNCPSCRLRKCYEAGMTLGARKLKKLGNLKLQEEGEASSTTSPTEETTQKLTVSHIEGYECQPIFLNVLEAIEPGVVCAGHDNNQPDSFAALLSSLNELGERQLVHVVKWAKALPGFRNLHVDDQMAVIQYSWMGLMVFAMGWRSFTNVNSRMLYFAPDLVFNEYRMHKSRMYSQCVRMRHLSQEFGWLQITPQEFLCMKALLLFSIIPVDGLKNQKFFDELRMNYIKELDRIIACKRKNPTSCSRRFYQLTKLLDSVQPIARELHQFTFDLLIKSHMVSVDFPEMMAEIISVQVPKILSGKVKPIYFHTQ
It is filed as cell-based. On the procedure: Scores greater than 1 indicate nuclear localization. At least 50 cells were scored for each treatment.
AR translocation assays were performed by a modified protocol from Myung et al.[9]. Approximately 2.8 × 10^5 LNCaP cells were grown on coverslips in six-well plates and transiently transfected with 2 μg of an expression vector encoding a YFP-AR fusion protein. On the following day, cells were pre-treated with the indicated compounds for 1 h and stimulated with R1881 (1 nM) or a vehicle containing ethanol for 3 h. After incubating with compounds, cells were fixed with 4% paraformaldehyde, washed twice with PBS, and then counterstained with DAPI. Slides were examined on an Axiovert 200 Fluorescence Microscope (Zeiss, Oberkochen, Germany). The ratio of the YFP signal in the nucleus relative to the cytoplasm was quantified with ImageJ software. For each image, background fluorescence was measured and subtracted from experimental values. A total of at least 50 cells from nine images containing six or more cells per field were quantified to determine the nuclear to cytoplasmic YFP ratio for each treatment group.

Several values for one entry are separate records, joined by “and”; a condition that tells them apart may be missing. Equal entries are not always repeated.

Consider `CC1=C(/C=C/C(C)=C/C=C/C(C)=C/C(=O)O)C(C)(C)CCC1` [ATRA, all-trans retinoic acid], for which the “effect on colony formation” value with LN95 cells is “inhibited the ability of LN95 cells to form colonies in a dose-dependent manner”. Besides, the “reduction of PSA expression in sera, pilot study” value in the experiment on serum PSA amounted to 27%. Further, the “effect on proliferation of DU145 cells” value with DU145 cells was “did not impact the proliferation of either PC-3 or DU145 cells”. In addition, the “BrdU incorporation, DU145 (Fig. 4d)” value with DU145 cells (− R1881, ENZ 10 µM, EPI-002 25 µM, JUG 20 µM) is 0.607 and 0.932 and 1.111 and 0.945. Further, the “effect on percentage of SA β-gal-positive cells” value with LNCaP cells is “significantly increased the percentage of SA β-gal-positive cells for LNCaP and LN95 cells”. For the same compound, the “tumor growth after 21 days of treatment” value with LN95-D3 xenografts (castrated mice, ATRA 5 mg 21-day release pellet, EPI-7170 30 mg/kg daily oral, relative to vehicle/placebo-control) is reported as “significantly reduced”. Besides, the “growth of LN95-D3 tumors, pilot study” value in the experiment on LN95-D3 xenografts (mice bearing ATRA slow-release pellets compared to placebo) is given as “markedly reduced”. In addition, the “Tumor volume, individual animals (Fig. 7b)” value with LN95-D3 xenografts (treatment duration 0 days) is 24.32 and 14.61 and 31.83 and 56.34 and 20.55 and 20.28 and 50.07 and 32.48; in the experiment with LN95-D3 xenografts (treatment duration 3 days), 55.84 and 24.48 and 48.26 and 128.17 and 47.08 and 28.39 and 67.63 and 51.78; with LN95-D3 xenografts (treatment duration 6 days), 83.34 and 43.04 and 71.44 and 190.56 and 74.31 and 35.31 and 102.14 and 93.49; in the experiment with LN95-D3 xenografts (treatment duration 9 days), 133.91 and 53.07 and 85.22 and 295.56 and 122.11 and 47.93 and 142.91 and 132.75; with LN95-D3 xenografts (treatment duration 12 days) it was 206.68 and 57.46 and 89.96 and 435.8 and 154.08 and 63.14 and 159.59 and 153.66; in the experiment with LN95-D3 xenografts (treatment duration 15 days), 291.35 and 84.16 and 118.21 and 658.17 and 325.4 and 102.18 and 255.62 and 266.01. For the same compound, the “Tumor volume, individual animals (Fig. 7b)” value was 379.83 and 117.24 and 202.18 and 871.57 and 503.37 and 170.47 and 377.34 and 331.83 with LN95-D3 xenografts (treatment duration 18 days); 564.91 and 139.55 and 232.06 and 1102.95 and 649.08 and 196.67 and 421.71 and 345.48 with LN95-D3 xenografts (treatment duration 21 days).

As usually defined, the IC50 is the concentration needed to halve the response being measured. Turning to `O=C1C=CC(=O)c2c(O)cccc21` [juglone], the remaining activity at 10 µM at full-length AR [1] (inhibitor 10 μM, read-out: PB-luciferase activity normalized to the induction by R1881 (=100) (Fig. 2b)) came out at 22.5%. Also, on full-length AR [1] (read-out: IC50, androgen-induced PB-luciferase activity), the IC50 was 6.45 µM. Besides, at full-length AR [2], the IC50 came to 10.9 µM. Also, at YFP-AR fusion protein, the “YFP-AR localization, ratio of YFP intensity nucleus to cytosol (Fig. 2h), EtOH” value is 0.76 and 0.781 and 0.791; the “YFP-AR localization, ratio of YFP intensity nucleus to cytosol (Fig. 2h), R1881” value was 1.983 and 2.303 and 2.076.
